From patent US20140158116A1, “INHIBITING TRPA1 FOR THE TREATMENT OF ASTHMA” (Cubist Pharmaceuticals, Inc., priority 2012, published 2014)
Like-named read-outs stand apart in the source and are kept apart here.

Legend:
[1] = system: formalin-induced pain behavior; experiment: Formalin-induced pain behavior in vivo rodent model; design: species or system rat; conditions: for # of Flinches: Table 3c, vehicle 120
From the text: The data shown in Tables 3a, 3b, and 3c and FIG. 2 were obtained by administering a pharmaceutical composition comprising the compound of Formula (Ia) to rodents in the formalin-induced pain duration at various doses according to Example 5. Specifically, the data in Tables 3a, 3b, and 3c and FIG. 2 were obtained by intraperitoneal (i.p.) administration of compositions containing different concentrations of the compound of Formula (Ia), a comparator composition containing recited amounts of the comparator compound (e.g., 150 mg/kg of the comparator compound of Formula (II) in Table 3a) and a control composition containing the vehicle (e.g., without the compound of Formula (Ia) or a comparator compound).
The compound of Formula (Ia) and the comparator compounds of Formula (II) and Formula (III) were tested in the formalin-induced pain test reported by Dubuisson et al., Pain 1977 December; 4(2):161-74 (incorporated herein by reference in its entirety). Dubuisson et al. (1977) describe a method for assessing pain and analgesia in rats and cats. Briefly, dilute formalin (50 μL of 3% formalin) is injected into the plantar surface of the hind paw. […] The individual responsible for counting the pain behaviors in a particular study is blinded to the treatment groups.
Rats were treated with the HCl salt of Compound (Ia) at various doses (3, 10, 30, and 50 mg/kg, IP) or with the vehicle (IP).

[2] = system: CFA-induced cold allodynia; experiment: Complete Freund's Adjuvant (CFA) cold allodynia rodent pain model; assay type: in vivo; conditions: 150 mg/kg; vehicle 19.8
Method: The compound of Formula (Ia) is also active in rodent models of pain in vivo induced by cold allodynia following chronic Complete Freund's Adjuvant-induced inflammation, as described in Example 6. […] The compound of Formula (Ia), the comparator compound of Formula (II) and ketoprofen were tested by the CFA-induced pain test method reported in del Camino et al., J. Neurosci., 30(45):15165-15174, incorporated herein by reference in its entirety. Briefly, the hind paw was sensitized to cold temperature (allodynic), by administering 0.1 mL of Complete Freund's Adjuvant (CFA) to the left hind paw. 2-3 days later, the time taken for the animal to lift its CFA-injected paw was recorded compared to its un-injected normal right hind paw. […] To avoid tissue damage the maximum cut-off time was 5 minutes. Animals that were allodynic (average PWL to the first three pain behaviors <150 seconds for the CFA-injected hind paw: ˜≧50% difference between the normal and CFA-injected paw) were included in the study and subsequently randomized across treatment groups. The following day, the animals were dosed under blinded conditions. Following the 1-2 hour pre-treatment time, the post-dose PWL readings were again taken. The efficacy of the drug treatment was assessed by comparing the PWL in the drug treatment animals to those animals that received the vehicle.

dTRPA1 = dTRPA1 (Canis lupus familiaris, UniProt A0A8I3Q1Q7); experiment: Whole-cell patch clamp block of inward current through dTRPA1; assay type: cell-based, Dog; conditions: class symbol; read-out: Potency (IC50) Dog
dTRPA1, sequence (A0A8I3Q1Q7 1-1118): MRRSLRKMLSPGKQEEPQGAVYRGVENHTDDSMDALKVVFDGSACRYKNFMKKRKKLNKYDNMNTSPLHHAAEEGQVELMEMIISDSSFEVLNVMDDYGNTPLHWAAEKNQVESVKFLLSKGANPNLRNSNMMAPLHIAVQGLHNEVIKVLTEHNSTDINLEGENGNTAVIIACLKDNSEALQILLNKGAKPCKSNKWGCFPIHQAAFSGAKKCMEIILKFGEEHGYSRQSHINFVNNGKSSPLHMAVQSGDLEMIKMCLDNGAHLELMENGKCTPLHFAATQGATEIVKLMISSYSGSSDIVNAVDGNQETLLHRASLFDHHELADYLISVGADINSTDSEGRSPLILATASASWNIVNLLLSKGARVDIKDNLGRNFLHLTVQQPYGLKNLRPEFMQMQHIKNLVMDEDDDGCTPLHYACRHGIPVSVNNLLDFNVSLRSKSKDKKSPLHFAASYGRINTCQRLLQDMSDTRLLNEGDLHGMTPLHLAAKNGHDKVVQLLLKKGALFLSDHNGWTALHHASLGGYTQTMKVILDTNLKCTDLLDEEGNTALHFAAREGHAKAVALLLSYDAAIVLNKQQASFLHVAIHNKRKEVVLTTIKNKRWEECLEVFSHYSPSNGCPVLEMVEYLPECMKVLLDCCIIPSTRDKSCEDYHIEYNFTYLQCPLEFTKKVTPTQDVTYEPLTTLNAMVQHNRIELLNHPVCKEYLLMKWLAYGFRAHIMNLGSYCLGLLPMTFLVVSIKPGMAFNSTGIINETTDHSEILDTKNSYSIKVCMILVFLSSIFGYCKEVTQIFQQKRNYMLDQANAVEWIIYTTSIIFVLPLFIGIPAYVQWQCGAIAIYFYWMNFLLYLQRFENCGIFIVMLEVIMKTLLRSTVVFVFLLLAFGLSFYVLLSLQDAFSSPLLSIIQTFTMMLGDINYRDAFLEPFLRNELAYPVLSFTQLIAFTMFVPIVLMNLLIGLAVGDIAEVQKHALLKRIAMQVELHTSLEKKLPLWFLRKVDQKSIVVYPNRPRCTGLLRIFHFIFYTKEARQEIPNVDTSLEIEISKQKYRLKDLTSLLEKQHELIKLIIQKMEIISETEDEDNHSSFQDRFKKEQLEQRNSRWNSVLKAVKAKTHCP
Method: (§1) Data for TRPA1 inhibition and the selectivity of TRPA1 inhibition was obtained by this method for the compound of Formula (Ia) and included in Table 1 and Table 2. All currents were recorded in whole-cell configuration using EPC-9 and EPC-10 amplifiers and Patchmaster software (HEKA). […] The standard pipette solution consisted of 140 mM CsAsp, 10 mM EGTA, 10 mM HEPES, 2.27 mM MgCl2, 1.91 mM CaCl2, 4 mM MgATP, and 0.1-0.3 mM Na2GTP, with pH adjusted to 7.2 with CsOH. In addition, a solution containing 145 mM CsCl, 10 mM HEPES, 10 mM EGTA and 1 mM MgCl2 (pH 7.2 adjusted with CsOH) can be used. The standard bath solution contained 150 mM NaCl, 10 mM HEPES, 10 mM glucose, 4.5 mM KCl, 1 mM EGTA, 3 mM MgCl2, with pH adjusted to 7.4 with NaOH. In some instances, 2 mM CaCl2 was added in place of EGTA and the concentration of MgCl2 was reduced to 1 mM.
(§2) Data were collected either by continuous recordings at −60 mV or by applying voltage ramps from a holding potential of 0 mV every 4 s. Continuous recordings were collected at 400 Hz and digitally filtered off-line at 10 Hz for presentation. Voltage ramps were applied from −100 mV to 100 mV over the course of 400 ms, and data were collected at 10 kHz and filtered at 2.9 kHz. Inward and outward currents were analyzed from the ramps at −80 and 80 mV, respectively. Liquid junction potential correction was not used.
(§3) Solutions were switched using a gravity-fed continuous focal perfusion system. To achieve rapid temperature changes, two temperature control and perfusion systems were employed simultaneously. For temperatures ≧22° C., a Warner Instruments bipolar temperature controller (TC-344B) and inline heater (SHM-8) were used. […] Temperatures were confirmed using a thermistor (Warner Instruments, TA-29), with temperatures at the recorded cell estimated to be within +/−2° C. of those reported.
(§4) IC50 of compounds was estimated by testing each compound at 5 micromolar and 500 nanomolar. […] IC50 for compounds between 500 nanomolar and 5 micromolar was similarly estimated. […]

[3] = system: serum biomarkers of hepatotoxicity (ALT, AST, ALP, GGT); experiment: Hepatotoxicity serum biomarker study in dogs, oral dose; assay type: in vivo, dog; conditions: for ALT level elevation: single PO dose of 50 mg/kg
Method: The compound of Formula (Ia) was orally dosed to […] at dose levels of 5, 15 or 50 mg/kg using 30% Sulfobutylether β-cyclodextrin as the vehicle for assessment of safety as measured via serum chemistry biomarkers of hepatotoxicity or bile duct injury FIG. 5A, showing measurements of alanine aminotranferease [ALT], aspartate aminotranferease [AST], alkaline phosphatase [ALP] and gamma-glutamyl transferase [GGT] in the dogs at each dose level (each bar represents a measurement from 1 dog in the study). […] For example, the ALT levels were elevated up to about 60-fold in male dogs and up to about 130-fold in female beagle dogs following a single PO dose of 50 mg/kg.

rTRPA1 = rTRPA1 (Rattus norvegicus, UniProt Q6RI86); experiment: Whole-cell patch clamp block of inward current through rTRPA1; assay type: cell-based; conditions: class symbol; read-out: Potency (IC50) Rat
rTRPA1, sequence (Q6RI86 whole entry): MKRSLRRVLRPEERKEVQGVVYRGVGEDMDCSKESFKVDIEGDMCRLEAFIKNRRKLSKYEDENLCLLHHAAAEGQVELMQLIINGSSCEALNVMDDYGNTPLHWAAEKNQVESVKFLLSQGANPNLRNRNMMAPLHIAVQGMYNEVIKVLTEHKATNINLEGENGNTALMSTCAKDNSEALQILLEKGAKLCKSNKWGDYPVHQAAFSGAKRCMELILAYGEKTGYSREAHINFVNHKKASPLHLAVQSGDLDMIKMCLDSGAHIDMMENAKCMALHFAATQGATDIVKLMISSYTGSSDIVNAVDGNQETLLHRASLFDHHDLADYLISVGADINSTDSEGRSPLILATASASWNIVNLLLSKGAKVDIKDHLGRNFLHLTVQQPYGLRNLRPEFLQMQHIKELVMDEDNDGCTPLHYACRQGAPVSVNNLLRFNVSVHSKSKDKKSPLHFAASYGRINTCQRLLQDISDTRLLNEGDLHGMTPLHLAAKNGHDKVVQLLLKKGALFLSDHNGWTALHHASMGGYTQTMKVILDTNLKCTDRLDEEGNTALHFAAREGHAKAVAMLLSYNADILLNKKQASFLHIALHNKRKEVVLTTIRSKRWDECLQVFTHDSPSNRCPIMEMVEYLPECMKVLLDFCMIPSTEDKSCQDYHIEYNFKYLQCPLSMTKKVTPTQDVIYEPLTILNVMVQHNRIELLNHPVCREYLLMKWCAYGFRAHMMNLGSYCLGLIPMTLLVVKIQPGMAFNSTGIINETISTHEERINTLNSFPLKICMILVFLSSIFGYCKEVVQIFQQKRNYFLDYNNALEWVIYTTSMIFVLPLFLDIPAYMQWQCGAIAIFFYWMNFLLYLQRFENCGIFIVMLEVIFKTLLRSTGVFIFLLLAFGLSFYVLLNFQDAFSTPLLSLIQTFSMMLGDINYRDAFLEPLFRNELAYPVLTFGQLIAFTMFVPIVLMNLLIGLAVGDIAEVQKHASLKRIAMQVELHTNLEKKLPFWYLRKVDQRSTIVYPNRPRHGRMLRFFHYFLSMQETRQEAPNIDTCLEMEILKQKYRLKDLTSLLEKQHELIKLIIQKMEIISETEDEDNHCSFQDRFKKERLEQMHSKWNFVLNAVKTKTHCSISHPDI
Method: as §1, §2, §3, §4

[4] = Human plasma protein binding by equilibrium dialysis; assay type: in vitro ADME; conditions: percentage bound
Method: The amount of compound in buffer (free fraction) and the amount of compound associated with the plasma fraction is determined by equilibrium dialysis; the amount of compound bound is expressed as a percentage. (Banker et al., Journal of Pharmaceutical Sciences (2003) 92(5): 967-74.)

[5] = 7-day repeat dose i.p. screening toxicity study in rats; assay type: in vivo, rat; conditions: rats; 50 mg/kg/day i.p. for 7 consecutive days
Method: The compound of Formula (Ia) was evaluated in a 7-day repeat dose screening toxicity study in female rats. In order to maximize systemic exposure, rats were administered compound of Formula (Ia) i.p. at 50 mg/kg/day for 7 consecutive days, to obtain the results shown in FIG. 6. Clinical chemistry parameters were evaluated on Days 3 and 8. Histopathology was performed on select organs including the liver, kidney, spleen, and lung.

hTRPA1 [6] = target: T1, hTRPA1 (Homo sapiens, UniProt O75762); experiment: Whole-cell patch clamp block of inward current through hTRPA1; assay type: cell-based
T1 sequence (O75762 whole entry): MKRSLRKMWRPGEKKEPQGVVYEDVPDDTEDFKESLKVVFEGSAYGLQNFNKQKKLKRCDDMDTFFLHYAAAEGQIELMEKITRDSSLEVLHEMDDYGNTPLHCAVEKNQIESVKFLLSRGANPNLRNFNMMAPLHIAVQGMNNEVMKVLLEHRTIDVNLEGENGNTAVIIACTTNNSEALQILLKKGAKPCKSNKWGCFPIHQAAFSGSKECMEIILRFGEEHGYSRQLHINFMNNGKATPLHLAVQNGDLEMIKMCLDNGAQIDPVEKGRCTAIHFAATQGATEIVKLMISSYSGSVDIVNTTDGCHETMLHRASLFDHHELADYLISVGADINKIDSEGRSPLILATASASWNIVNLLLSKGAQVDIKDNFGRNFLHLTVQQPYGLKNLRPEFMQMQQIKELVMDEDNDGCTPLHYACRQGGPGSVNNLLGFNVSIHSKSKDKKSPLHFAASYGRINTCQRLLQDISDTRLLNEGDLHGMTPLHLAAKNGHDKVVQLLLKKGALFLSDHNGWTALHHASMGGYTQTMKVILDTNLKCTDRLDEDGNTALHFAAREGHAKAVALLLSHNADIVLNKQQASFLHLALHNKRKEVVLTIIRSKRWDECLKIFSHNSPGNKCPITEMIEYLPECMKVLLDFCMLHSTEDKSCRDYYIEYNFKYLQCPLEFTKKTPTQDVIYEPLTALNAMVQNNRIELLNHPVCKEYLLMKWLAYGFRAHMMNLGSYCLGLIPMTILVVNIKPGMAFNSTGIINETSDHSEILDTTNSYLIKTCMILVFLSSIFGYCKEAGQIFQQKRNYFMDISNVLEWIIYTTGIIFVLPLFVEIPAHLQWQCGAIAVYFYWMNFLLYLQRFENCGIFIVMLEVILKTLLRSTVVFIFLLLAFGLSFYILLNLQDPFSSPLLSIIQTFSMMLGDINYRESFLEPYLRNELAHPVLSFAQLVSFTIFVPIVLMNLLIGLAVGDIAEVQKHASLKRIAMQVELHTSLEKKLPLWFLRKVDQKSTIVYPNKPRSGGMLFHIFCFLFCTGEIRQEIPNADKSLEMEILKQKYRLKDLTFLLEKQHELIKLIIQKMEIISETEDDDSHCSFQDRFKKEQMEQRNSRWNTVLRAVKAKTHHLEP
Method: as §1, §2, §3
IC50 of compounds was estimated by testing each compound at 5 micromolar and 500 nanomolar. […] IC50 for compounds between 500 nanomolar and 5 micromolar was similarly estimated. Compounds blocking 50% or more at 500 nanomolar are retested at multiple concentrations, and the % block at each is fitted by standard equations to determine IC50 accurately using a 5-6 point concentration/response experiment.

[7] = Oral bioavailability pharmacokinetic study; assay type: in vivo; conditions: rat, plasma, PO versus IV
Method: The potency and pharmacokinetic (PK) properties of (a) the compound of Formula (Ia); and (b) comparator compound of Formula (III) were evaluated. Bioavailability was measured as well. A pharmacokinetic study was performed to obtain a plasma drug concentration vs time plot for the drug after both intravenous (IV) and oral (PO) administration. The absolute bioavailability is the dose-corrected area under curve (AUC) non-intravenous divided by AUC intravenous. The formula for calculating F for a drug administered by the oral route (PO) is given below.
The bioavailability was calculated using the equation shown below:
% F=AUC PO×Dose IV/AUC IV×Dose PO

hTRPA1 [8] = target: T1, hTRPA1; experiment: hTrpA1 IC50 measured in 1% RSA (rat serum albumin); assay type: cell-based
[9] = hTRPA1, Human, current activation 10 micromolar AITC, whole cell patch, read-out: IC50 Inward current

SMILES: CC(C)c1ccc(NC(=O)Cn2cnc3c2c(=O)n(C)c(=O)n3C)cc1 [Formula (II)]
- # of Flinches ([1]; 30 mg/kg): 88
- # of Flinches ([1]; 100 mg/kg): 62
- Duration of Pain Behavior ([1]; 150 mg/kg, Table 3a, vehicle 88.6): 40.0 s
- # of Flinches ([1]; 300 mg/kg): 43
- Change in Paw Withdrawal Latency [2]: 142.2

SMILES: NCC1(CC(=O)O)CCCCC1 [Gabapentin]
- # of Flinches ([1]; reference, dose not given): 75

SMILES: C[C@H]1CCCN1c1ccc(-c2csc(NC(=O)Cn3cnc4c3c(=O)n(C)c(=O)n4C)n2)cc1F [Formula (III), reference compound]
- IC50 (dTRPA1): < 25 nM
- effect on serum biomarkers of hepatotoxicity ([3]; dogs, 50 mg/kg PO): did elevate serum biomarkers of hepatotoxicity
- ALT level elevation ([3]; female beagle dogs): up to 130 fold
- ALT level elevation ([3]; male dogs): up to 60 fold
- Duration of Pain Behavior ([1]; 50 mg/kg, Table 3b, vehicle 77.2): 44.3 s
- IC50 (rTRPA1): 50 to 100 nM
- fraction unbound [4]: < 0.01
- effect on serum biomarkers of hepatotoxicity [5]: did elevate serum biomarkers of hepatotoxicity as compared to Formula (Ia)
- IC50 (hTRPA1 [6]; [9]): < 25 nM
- IC50 (hTRPA1 [6]; hTRPA1, class symbol, read-out: Potency (IC50) Human): < 25 nM
- bioavailability ([7]; oral, fed rats, read-out: Bioavailability (Rat) Fed): 1 to 25%
- bioavailability ([7]; po, fasted rats, read-out: Bioavailability (Rat) Fasted): 25 to 50%
- bioavailability ([7]; po, fed rats, read-out: Bioavailability (Rat) Fed): 1 to 25%

SMILES: C[C@@H]1CCCN1c1ncc(-c2cccc(NC(=O)Cn3cnc4c3c(=O)n(C)c(=O)n4C)n2)cn1 [Formula (Ib)]
- IC50 (hTRPA1 [8]): 15200 nM
- IC50 (hTRPA1 [6]; [9]): 77 nM
